Results taken from ChEMBL document CHEMBL5661943, “ASAP - In vitro antiviral effect” (2024).

Key:
[1] = test system: dengue virus type 2; test: Functional assay to measure dose dependent changes in antiviral-drug inhibitory efficacy against Dengue virus type 2 New Guinea C in Vero E6 miRFP670 cells (cotreated with P-gp inhibitor, CP100356). Cells are treated with antiviral candidates that are serially diluted, following infection, cells are fixed. EC50 is reported via analysis of fluorescence intensity using high-content imager. The …; type: organism-based, Chlorocebus sabaeus, Vero C1008; conditions: Dengue virus; for EC90: P-gp concentration 500 nM, P-gp inhibitor CP100356
[2] = test system: Zika virus; test: Functional CPE-based assay to measure dose dependent changes in antiviral-drug inhibitory efficacy against Zika virus MR766 in Vero E6 miRFP670 cells (cotreated with P-gp inhibitor, CP100356). Cells are treated with antiviral candidates that are serially diluted. EC50 is reported via analysis of MTS assay as a readout of CPE. The assay has been performed by KU Leuven.; type: organism-based, Chlorocebus sabaeus, Vero C1008; conditions: Zika virus

| SMILES | EC50 ([1]; Vero C1008) [µM] | EC50 ([2]; Vero C1008) [µM] | also measured |
| --- | --- | --- | --- |
| O=C(Nc1cc(Cl)cc([C@H](C#CCO)Nc2ccc(-c3nn[nH]n3)cc2)c1)OCc1ccccc1 | > 50 |  | EC90 ([1]; Vero C1008, Maximum measured 120.318 %, Minimum measured 85.942 %): > 50 µM |
| CC(=Cc1cccc(CN)c1)c1cc(Cl)cc(NC(=O)OCc2ccccc2)c1 | > 6.25 |  | EC90 ([1]; Vero C1008, Maximum measured 157.677 %, Minimum measured 102.187 %): > 6.25 µM |
| O=C(Nc1ccc2c(c1)CNC2)c1cc(Cl)cc2[nH]c(-c3cccc(F)c3)nc12 |  | > 50 | EC90 ([2]; Vero C1008, Baseline response 0 %, Hill slope 0.814, Maximum measured 40.434 %, Maximum response 100 %, Minimum measured 0.118 %, P-gp concentration 500 nM, R squared 0.904, P-gp inhibitor CP100356): > 50 µM |
| N[C@H]1CC[C@H](c2ccc(NC(=O)c3cc(Cl)cc(NC(=O)OCc4ccccc4)c3)cc2)C1 | 1.49 |  | EC90 ([1]; Vero C1008, Baseline response 0 %, Hill slope -16.959, Maximum measured 155.273 %, Maximum response 100 %, Minimum measured 29.767 %, R squared 0.495): > 1.56 µM |
| CNC(=O)[C@H](Nc1cccc(CN)c1)c1cc(Cl)cc(NC(=O)OCc2ccccc2)c1 | 7.81 |  | EC90 ([1]; Vero C1008, Baseline response 0 %, EC90 CI (lower) 4.909 uM, EC90 CI (upper) 7.205 uM, Hill slope -8.054, Maximum measured 105.221 %, Maximum response 100 %, Minimum measured 2.373 %, R squared 0.934): 10.3 µM |
| Clc1cccc([C@H](C#Cc2ccccc2)Nc2cccc(-c3nn[nH]n3)c2)c1 | > 6.25 |  | EC90 ([1]; Vero C1008, Maximum measured 160.53 %, Minimum measured 108.244 %): > 6.25 µM |
| O=C(Nc1ccc2c(c1)CN[C@H]2C1CC1)c1cc(F)cc2[nH]ncc12 |  | 6.28 | EC90 ([2]; Vero C1008): 7.09 µM |
| NCc1ccc([C@H]2C[C@@H]2c2cc(Cl)cc(NC(=O)OCc3ccccc3)c2)cc1 | 2.72 |  | EC90 ([1]; Vero C1008, Baseline response 0 %, Hill slope -3.689, Maximum measured 118.529 %, Maximum response 100 %, Minimum measured 38.173 %, R squared 0.774): > 3.12 µM |
| C=CC[C@H](Nc1cccc(-c2nn[nH]n2)c1)c1cc(Cl)cc(NC(=O)OCc2ccccc2)c1 | < 0.391 |  | EC90 ([1]; Vero C1008, Baseline response 0 %, EC90 CI (lower) 0.009 uM, EC90 CI (upper) 0.062 uM, Hill slope -1.268, Maximum measured 19.733 %, Maximum response 100 %, Minimum measured 0.468 %, R squared 0.944): 0.74 µM |
| O=C(Nc1cc(Cl)cc(C(=O)Nc2ccc3c(c2)CCNC3)c1)OCc1ccccc1 | > 1.56 |  | EC90 ([1]; Vero C1008, Maximum measured 159.578 %, Minimum measured 136.105 %): > 1.56 µM |
| C[C@H]1NCc2cc(NC(=O)c3cc(F)cc4[nH]ncc34)ccc21 |  | > 50 | EC90 ([2]; Vero C1008, Baseline response 0 %, Hill slope 1.233, Maximum measured 13.741 %, Maximum response 100 %, Minimum measured -1.755 %, P-gp concentration 500 nM, R squared 0.661, P-gp inhibitor CP100356): > 50 µM |
| CNC(=O)[C@H](Nc1cc(Cl)cc(NC(=O)OCc2ccccc2)c1)c1cccc(CN)c1 | 7.19 |  | EC90 ([1]; Vero C1008, Baseline response 0 %, EC90 CI (lower) 3.139 uM, EC90 CI (upper) 9.78 uM, Hill slope -8.413, Maximum measured 116.634 %, Maximum response 100 %, Minimum measured 2.553 %, R squared 0.885): 9.34 µM |
| O=C(Nc1ccc2c(c1)CNC2)c1cc(Cl)cc2[nH]c(-c3ccccc3)nc12 |  | > 50 | EC90 ([2]; Vero C1008, Baseline response 0 %, Hill slope 1.72, Maximum measured 10.819 %, Maximum response 100 %, Minimum measured -5.769 %, P-gp concentration 500 nM, R squared 0.199, P-gp inhibitor CP100356): > 50 µM |
| N#C[C@H](Nc1cc(Cl)cc(NC(=O)OCc2ccccc2)c1)c1ccc(-c2nn[nH]n2)cc1 | > 50 |  | EC90 ([1]; Vero C1008, Baseline response 0 %, Hill slope -0.236, Maximum measured 132.412 %, Maximum response 100 %, Minimum measured 19.2 %, R squared 0.02): > 50 µM |
| O=C(Nc1ccc2c(c1)CNC2)c1cc(Cl)cc(N2CCCC2)c1 |  | > 50 | EC90 ([2]; Vero C1008, Maximum measured 3.676 %, Minimum measured -16.143 %, P-gp concentration 500 nM, P-gp inhibitor CP100356): > 50 µM |
| O=C(Nc1cc(Cl)cc(C(=O)Nc2ccc([C@@H]3C[C@H]3C(=O)O)cc2)c1)OCc1ccccc1 | > 50 |  | EC90 ([1]; Vero C1008, Maximum measured 124.209 %, Minimum measured 92.524 %): > 50 µM |
